pEC50: −log10 of the molar value. Like-named read-outs stand apart in the source and are kept apart here.
Experiments:
[1] = system: HIV-1 clinical isolated, characterised by mutations in the RT gene inducing geno-phenotypic resistance to 3TC; test: p24 production susceptibility test (ACTG protocol), Table 3; type: cell-based; conditions: for pEC50: Human immunodeficiency virus 1, PBMC, read-out: E.C.50 HCQ; for S.I. HCQ / Fen. HCQ (fold): PBMC; for S.I. HCQ: I.C.50/E.C.50; for Fen. HCQ (fold): ratio to HIV-IIIB
Text: (§1) For the phenotype of the nucleosidic, non-nucleosidic and proteases inhibitors was utilised a method which consider the use of human PBMC and the protocol standardised by the AIDS Clinical Trials Group, after verifying the genotype by sequence analysis.
(§2) In order to assay in vitro the susceptibility to chloroquine and hydroxychloroquine of the viral strains, it was used the protocol of the ACTG which is characterised by the measure, of the production of antigen p24 in strongly infected cells.
(§3) The susceptibility of the viral strains to chemotherapics was determined in cell cultures, prepared in 96 wells microplates, using, for the infection, 0.1 MOI.
(§4) The supernatant of the infected cultures (either in absence or in presence of different concentrations of chemotherapic) were tested for the production of p24 after 7 days, using an ELISA test which is commercially available.
At the same time non-infected cells were incubated with concentrations of chloroquine and hydroxychloroquine ranging from 0 to 50 uM to evaluate the toxicity of the compound.
(§5) After 4 day from the infection, half the cellular medium was replaced with a medium containing the corresponding dilution of chloroquine and hydroxychloroquine. The percentage of inhibition of the HIV replication, induced by chloroquine and hydroxychloroquine, was determined, after 7 day from the infection, comparing the levels of p24 of this cultures and that of the control, infected and not treated with chloroquine and hydroxychloroquine.
(§6) Therefore, the E.C.50 of chloroquine and hydroxychloroquine expresses the concentration of chemotherapic that inhibits the 50% of production of p24 and the values were calculated using linear and non linear regression analysis (the significativity for the non linear regression was R^2>0.95).
(§7) In the same experimental conditions and in the same day, but with similar concentrations of chloroquine and hydroxychloroquine, it was evaluated the vitality of the infect cell cultures, and this was expressed as I.C.50.
(§8) I.C.50 (Inhibitory Concentration) indicates the concentration of the chemotherapic agent inhibiting the vitality of the cell cultures at a rate of 50%, when there is not infection.

[2] = system: HIV-1 clinical isolated, characterised by mutations in the RT gene inducing geno-phenotypic resistance to d4T; test: p24 production susceptibility test (ACTG protocol), Table 4; type: cell-based; conditions: for pEC50: Human immunodeficiency virus 1, PBMC, read-out: E.C.50 HCQ; for S.I. HCQ / Fen. HCQ (fold): PBMC; for S.I. HCQ: I.C.50/E.C.50; for Fen. HCQ (fold): ratio to HIV-IIIB
Text: as §1, §2, §3, §4
(§9) The concentrations of chloroquine and hydroxychloroquine tested ranged from 0.5 to 15 uM. At the same time non-infected cells were incubated with concentrations of chloroquine and hydroxychloroquine ranging from 0 to 50 uM to evaluate the toxicity of the compound.
as §5, §6, §7, §8

[3] = system: HIV-1 strains geno-phenotypically resistant to NVP; test: p24 production susceptibility test, Table 6, MT-2 cells; type: cell-based; conditions: for pEC50: Human immunodeficiency virus 1, MT2, MT-2, read-out: E.C.50 HCQ; for S.I. HCQ / Fen. HCQ (fold): MT-2; for S.I. HCQ: I.C.50/E.C.50; for Fen. HCQ (fold): ratio to HIV-IIIB
Text: as §1, §2, §3, §4, §9, §5, §6, §7, §8

[4] = system: HIV-1 strains geno-phenotypically resistant to EFV; test: p24 production susceptibility test, Table 7, MT-2 cells; type: cell-based; conditions: for pEC50: Human immunodeficiency virus 1, MT2, MT-2, read-out: E.C.50 HCQ; for S.I. HCQ / Fen. HCQ (fold): MT-2; for S.I. HCQ: I.C.50/E.C.50; for Fen. HCQ (fold): ratio to HIV-IIIB
Text: as §1, §2, §3, §4, §9, §5, §6, §7, §8

[5] = system: HIV-1 clinical isolated, characterised by mutations on the protease gene inducing geno-phenotypic resistance to NFV; test: p24 production susceptibility test (ACTG protocol), Table 10, PBMC; type: cell-based; conditions: for S.I. HCQ: I.C.50/E.C.50; for Fen. HCQ (fold): ratio to HIV-IIIB; for pEC50: Human immunodeficiency virus 1, PBMC, read-out: E.C.50 HCQ
Text: as §1, §2, §3, §4, §9, §5, §6, §7, §8

[6] = system: HIV-1 strains cultivated in PBMC and isolated from patient naive to the treatment; test: p24 production susceptibility test (ACTG protocol), Table 11; type: cell-based; conditions: for pEC50: Human immunodeficiency virus 1, PBMC; for S.I. HCQ: I.C.50/E.C.50
Protocol: as §2, §3, §4, §9, §5, §6, §7, §8

[7] = system: viruses resistant to both reverse transcriptase and protease inhibitors; test: p24 production susceptibility test, summary for resistant viruses; type: cell-based, HIV-1; conditions: Human immunodeficiency virus 1, range
Protocol: as §2, §3
The supernatant of the infected cultures (either in absence or in presence of different concentrations of chemotherapic) were tested for the production of p24 after 7 days, using an ELISA test which is commercially available. […]
as §5, §6

[8] = Gen. M4IL E44D D67N M184V R211K T215Y
[9] = Gen. M41L D67N V118I M184V T215Y
[10] = Gen. K65R F77L Y115F Q151M M184V

Work on `CCN(CCO)CCCC(C)Nc1ccnc2cc(Cl)ccc12` (stereo not drawn) [HCQ, hydroxychloroquine] yielded a pEC50 [1, 8] of 5.60, a pEC50 [1, 9] of 5.49 and a pEC50 ([1]; Gen. M184I) of 5.55. The pEC50 ([1]; Gen. M184V) was 5.52, the “S.I. HCQ” value [1, 8] was 3.5 and the “Fen. HCQ (fold)” value [1, 8] was 1.5X fold. The “S.I. HCQ” value [1, 9] was 3.3, the “Fen. HCQ (fold)” value [1, 9] was 1.7X fold and the “S.I. HCQ” value ([1]; Gen. M184I) was 3.4. The “Fen. HCQ (fold)” value ([1]; Gen. M184I) was 1.2X fold, the “S.I. HCQ” value ([1]; Gen. M184V) was 3.2 and the “Fen. HCQ (fold)” value ([1]; Gen. M184V) was 1.3X fold. The pEC50 [2, 10] was 5.46, the pEC50 ([2]; Gen. K65R F116Y Q151M) was 5.52 and the pEC50 ([2]; Gen. M41I T69SSS T215Y) was 5.60. The pEC50 ([2]; Gen. T69SSS T215Y) was 5.52, the pEC50 ([2]; Gen. V75I F77L F116Y Q151M) was 5.52 and the “S.I. HCQ” value [2, 10] was 3.3. For the same compound, the “Fen. HCQ (fold)” value [2, 10] was 2.3X fold, the “S.I. HCQ” value ([2]; Gen. K65R F116Y Q151M) was 3.3 and the “Fen. HCQ (fold)” value ([2]; Gen. K65R F116Y Q151M) was 2.2X fold. The “S.I. HCQ” value ([2]; Gen. M41I T69SSS T215Y) was 3.6, the “Fen. HCQ (fold)” value ([2]; Gen. M41I T69SSS T215Y) was 1.6X fold and the “S.I. HCQ” value ([2]; Gen. T69SSS T215Y) was 3.3. For the same compound, the “Fen. HCQ (fold)” value ([2]; Gen. T69SSS T215Y) was 2X fold, the “S.I. HCQ” value ([2]; Gen. V75I F77L F116Y Q151M) was 4 and the “Fen. HCQ (fold)” value ([2]; Gen. V75I F77L F116Y Q151M) was 2X fold. For the same compound, the pEC50 ([3]; Gen. G190E) was 5.46, the pEC50 ([3]; Gen. K103N) was 5.55 and the pEC50 ([3]; Gen. V106A) was 5.49. The pEC50 ([3]; Gen. Y181C) was 5.49, the “S.I. HCQ” value ([3]; Gen. G190E) was 6 and the “Fen. HCQ (fold)” value ([3]; Gen. G190E) was 1.9X fold. For the same compound, the “S.I. HCQ” value ([3]; Gen. K103N) was 7.8, the “Fen. HCQ (fold)” value ([3]; Gen. K103N) was 1.5X fold and the “S.I. HCQ” value ([3]; Gen. V106A) was 6.2. The “Fen. HCQ (fold)” value ([3]; Gen. V106A) was 1.7X fold, the “S.I. HCQ” value ([3]; Gen. Y181C) was 6.1 and the “Fen. HCQ (fold)” value ([3]; Gen. Y181C) was 1.7X fold. It also gave a pEC50 ([4]; Gen. K101D K103N) of 5.60, a pEC50 ([4]; Gen. K103N V108D) of 5.55 and a pEC50 ([4]; Gen. K103N Y181C) of 5.60. For the same compound, the pEC50 ([4]; Gen. K103N) was 5.55, the pEC50 ([4]; Gen. L100I K103N) was 5.49 and the pEC50 ([4]; Gen. Y181C) was 5.82. The “S.I. HCQ” value ([4]; Gen. K101D K103N) was 8.8, the “Fen. HCQ (fold)” value ([4]; Gen. K101D K103N) was 1.6X fold and the “S.I. HCQ” value ([4]; Gen. K103N V108D) was 7.8. The “Fen. HCQ (fold)” value ([4]; Gen. K103N V108D) was 1.8X fold, the “S.I. HCQ” value ([4]; Gen. K103N Y181C) was 8.5 and the “Fen. HCQ (fold)” value ([4]; Gen. K103N Y181C) was 1.6X fold. For the same compound, the “S.I. HCQ” value ([4]; Gen. K103N) was 8.7, the “Fen. HCQ (fold)” value ([4]; Gen. K103N) was 1.8X fold and the “S.I. HCQ” value ([4]; Gen. L100I K103N) was 6. For the same compound, the “Fen. HCQ (fold)” value ([4]; Gen. L100I K103N) was 2.1X fold, the “S.I. HCQ” value ([4]; Gen. Y181C) was 8.7 and the “Fen. HCQ (fold)” value ([4]; Gen. Y181C) was 1X fold. The “S.I. HCQ” value ([5]; Gen. D30N A71V) was 4, the “Fen. HCQ (fold)” value ([5]; Gen. D30N A71V) was 1.2X fold and the “S.I. HCQ” value ([5]; Gen. D30N M46V A71V) was 5.5. The “Fen. HCQ (fold)” value ([5]; Gen. D30N M46V A71V) was 1X fold, the “S.I. HCQ” value ([5]; Gen. G48V V92A) was 3.3 and the “Fen. HCQ (fold)” value ([5]; Gen. G48V V92A) was 1.6X fold. For the same compound, the “S.I. HCQ” value ([5]; Gen. V82F L90M) was 3.6, the “Fen. HCQ (fold)” value ([5]; Gen. V82F L90M) was 1.3X fold and the pEC50 ([5]; Gen. D30N A71V) was 5.66. For the same compound, the pEC50 ([5]; Gen. D30N M46V A71V) was 5.74, the pEC50 ([5]; Gen. G48V V92A) was 5.52 and the pEC50 ([5]; Gen. V82F L90M) was 5.60. The pEC50 ([6]; HIV-1 virus sensitive to the anti-retroviral treatment, range over each experiment, read-out: E.C.50) was 5.46 to 5.82, the pEC50 ([6]; PBMC, Virus N°1, read-out: E.C.50 HCQ) was 5.66 and the pEC50 ([6]; PBMC, Virus N°2, read-out: E.C.50 HCQ) was 5.74. It also gave a pEC50 ([6]; PBMC, Virus N°3, read-out: E.C.50 HCQ) of 5.82, a pEC50 ([6]; PBMC, Virus N°4, read-out: E.C.50 HCQ) of 5.66 and a pEC50 ([6]; PBMC, Virus N°5, read-out: E.C.50 HCQ) of 5.74. The “S.I. HCQ” value ([6]; PBMC, Virus N°1) was 4.5, the “S.I. HCQ” value ([6]; PBMC, Virus N°2) was 5 and the “S.I. HCQ” value ([6]; PBMC, Virus N°3) was 6. The “S.I. HCQ” value ([6]; PBMC, Virus N°4) was 4, the “S.I. HCQ” value ([6]; PBMC, Virus N°5) was 4.5 and the pEC50 [7] was 5.46 to 5.82.

Source: patent US20040006103A1, “Use of chloroquine, hydroxychloroquine and 4 amino-quinolinic derivatives to obtain a drug for the anti retroviral therapy, active towards HIV sensitive strains and towards HIV strains which are resistant to both nucleosidic and non-nucleosidic reverse transcriptase inhibitors and to proteases …” (VALPHARMA S.A., priority 2002, published 2004)
